Assay results as given in US20210052701A1, “Methods of Treating Vascular Leakage Using CXCL12 Peptides” (The Medical College of Wisconsin, Inc., priority 2018, published 2021).
Entries after “also recorded” stand apart in the source; their conditions may differ. Where two headings read alike, the source gives them in different places.

Tests used:
ACKR3 = target: T1, ACKR3 (Homo sapiens, UniProt P25106); assay: Presto-Tango β-arrestin 2 recruitment assay for ACKR3; type: cell-based
T1 construct: host or cells: HTLA cells (HEK293 line stably expressing a tTA-dependent luciferase reporter and a β-arrestin2-TEV fusion gene)
Experimental: (§1) FIGS. 6A-6F show Presto-Tango β-arrestin 2 recruitment assays for CXCR4 (A-C) and ACKR3 (D-F). RLU %: % of the luminescence signal for 1 μM CXCL12α. N=9 for CXCL12a and n=3 for all other proteins.
(§2) Presto-Tango β-arrestin 2 recruitment assay—The PRESTO-Tango (parallel receptorome expression and screening via transcriptional out-put, with transcriptional activation following arrestin translocation) assay was performed as recently described. The Tango plasmids were a gift from Dr. Bryan Roth (all from Addgene). HTLA cells (2.5×10^5/well) were seeded in a 6-well plate and transfected with 1.5 μg of the Tango plasmids using Lipofectamine 3000 (ThermoScientific). The following day, transfected HTLA cells (1×10^5 cells/well) were plated onto Poly-L-Lysine pre-coated 96-well micro-plates and allowed to attach to the plate surface for at least 4 hours prior to treatment. Proteins used for treatment were prepared in twice the final concentration in culture media, added at a 1:1 vol/vol ratio and incubated overnight at 37° C., 5% CO2 in a humidified environment. The following morning, media was removed from cell culture plates and replaced with a 100 μL 1:5 mixture of Bright-Glo (Promega) and 1×HBSS, 20 mM HEPES solution. Plates were then incubated at room temperature before measuring luminescence on a Biotek Synergy II plate reader.

hPPAEC [1] = assay: Effects of CXCR4 agonists / CXCL12 variants on thrombin-induced impairment of hPPAEC monolayer permeability; type: cell-based, human
Experimental: FIGS. 3A-3D show effects of CXCL12 and ubiquitin on thrombin-induced impairment of hPPAEC monolayer permeability. hPPAEC were grown to a confluent monolayer on collagen-coated permeable membranes. (A) hPPAEC were pre-treated with vehicle, 100 nM of CXCL12 or ubiquitin for 10 minutes, as indicated, and then exposed to thrombin (50 nM), followed by the addition of FITC-dextran. Vehicle: no thrombin. Endothelial permeability was assessed by measuring the amount of FITC-dextran that permeated through the cell monolayer. No cells: 100% permeability (open circles). RFU: Relative fluorescence units. N=3 in quadruplicate. *: p<0.05 vs. vehicle/thrombin. (B-D) hPPAEC were exposed to 35 nM of thrombin or vehicle. After 10 min, thrombin-exposed cells were treated with vehicle, CXCL12 (50 nM) and/or AMD3100 (10 μM) (B), with vehicle, ubiquitin (50 nM) and/or AMD3100 (10 μM) (C) or with various concentrations of ubiquitin (D) followed by the addition of FITC-dextran. The experimental conditions are indicated. Endothelial permeability was assessed by measuring the amount of FITC-dextran that permeated through the cell monolayer. RFU: Relative fluorescence units. N=3 in quadruplicate. *: p<0.05 vs. thrombin/vehicle (2-way ANOVA/Bonferroni's multiple comparison post hoc test).
(§3) FIGS. 7A-7D show dose-dependent effects of CXCL12α/β, CXCL12 (3-68) and CXCL12 mutants K27A/R41A/R47A, R47E and S-S4V on thrombin-induced impairment of hPPAEC monolayer permeability. hPPAEC cells were grown to a confluent monolayer on collagen-coated permeable membranes. hPPAEC were then exposed to 35 nM of thrombin. After 10 min, thrombin-exposed cells were treated with vehicle or 50 nM (A), 5 nM (B), 0.5 nM (C) or 0.05 nM (D) of the various proteins, as indicated. In (D) 5 nM CXCL12a was used as a positive control. N=3 in quadruplicate.
as §3, with “8A-8D” for “7A-7D”, “CXCL12α, CXCL121” for “CXCL12α/β, CXCL12 (3-68)”, “CXCL122” for “CXCL12 mutants K27A/R41A/R47A, R47E and S-S4V”, “CXCL12α” for “CXCL12a”
FIGS. 9A-9B show inhibition of thrombin-induced hyper-permeability of hPPAEC by CXCL12/CXCL12 variants. % inhibition: % inhibition of thrombin-induced hyperpermeability. Data from FIGS. 7 and 8 at t=255 min. N=3 in quadruplicate. *: p<0.05 vs. CXCL12a (2-way ANOVA/Bonferroni's multiple comparison post hoc test).
(§4) In vitro vascular permeability assays—Permeability assays were obtained from Millipore (ECM642) and performed as per manufacturer's instructions. In brief, 96-well collagen-coated permeability assay plates were pre-hydrated for 15 min, 5×10^5 cells were seeded on each well and grown to a confluent monolayer for 48 hours. Fluorescein isothiocyanate (FITC)-dextran (20 μg/mL) was then added on top of the monolayer and the amount of FITC-dextran that permeated through the monolayer was quantified by measuring fluorescence in a Synergy 2 Multi-mode Microplate Reader (BioTek, Winooski, Vt.) at various time points over a 255 min time period.

CXCR4 = target: T2, CXCR4 (Homo sapiens, UniProt P61073); assay: Presto-Tango β-arrestin 2 recruitment assay for CXCR4; type: cell-based
T2 construct: host or cells: HTLA cells (HEK293 line stably expressing a tTA-dependent luciferase reporter and a β-arrestin2-TEV fusion gene)
Experimental: as §1, §2

hPPAEC [2] = assay: Thrombin dose-response in hPPAEC monolayer permeability assay; type: cell-based, human; details: for EC50: read-out: EC50 for thrombin-induced impairment of hPPAEC barrier function; for maximal impairment of endothelial barrier function: 100% = permeability in the absence of hPPAEC
Experimental: FIGS. 2A-2B show impairment of hPPAEC monolayer permeability by thrombin. (A) hPPAEC were grown to a confluent monolayer on collagen-coated permeable membranes and then exposed to different concentration of thrombin for 10 min, followed by the addition of FITC-dextran. Endothelial permeability was assessed by measuring the amount of FITC-dextran that permeated through the cell monolayer. No cells: 100% permeability. RFU: Relative fluorescence units. N=3 in quadruplicate. (B) Dose-response curves for thrombin-induced permeability, data from A. 100% permeability=permeability in the absence of hPPAEC. Open squares: Permeability at t=55 min. Light grey squares: Permeability at t=135 min. Dark grey squares: Permeability at t=255 min. Dose-response curves were generated using nonlinear regression analyses.
as §4
Data analysis—Data are expressed as mean±SEM from n independent experiments that were performed on different days. Data were analyzed with unpaired Student's t test, one- or two-way analyses of variance with Bonferroni's multiple comparison post hoc test, as appropriate. Dose-response curves were generated using nonlinear regression analyses. All analyses were performed with the GraphPad-Prism 7 software. A two-tailed P<0.05 was considered significant.

HULEC-5a = assay: Thrombin dose-response in HULEC-5a monolayer permeability assay; type: cell-based, human; details: read-out: EC50 for thrombin-induced impairment of HULEC-5a barrier function
Experimental: FIGS. 4A-4D show effects of CXCL12 and ubiquitin on thrombin-induced impairment of HULEC-5a monolayer permeability. (A) HULEC-5a were grown to a confluent monolayer on collagen-coated permeable membranes and then exposed to different concentration of thrombin for 10 min, followed by the addition of FITC-dextran. Endothelial permeability was assessed by measuring the amount of FITC-dextran that permeated through the cell monolayer. No cells: 100% permeability. RFU: Relative fluorescence units. N=3 in quadruplicate. (B) Dose-response curves for thrombin-induced permeability, data from A. 100% permeability=permeability in the absence of HULEC-5a. Open squares: Permeability at t=55 min. Light grey squares: Permeability at t=135 min. Dark grey squares: Permeability at t=255 min. (C/D) HULEC-5a were grown to a confluent monolayer on collagen-coated permeable membranes and then exposed to 50 nM of thrombin or vehicle. After 10 min, thrombin-exposed cells were treated with vehicle, CXCL12 (50 nM) (C) or ubiquitin (50 nM) (D), followed by the addition of FITC-dextran. The experimental conditions are indicated. Endothelial permeability was assessed by measuring the amount of FITC-dextran that permeated through the cell monolayer. RFU: Relative fluorescence units. N=3 in quadruplicate. *: p<0.05 vs. thrombin/vehicle (2-way ANOVA/Bonferroni's multiple comparison post hoc test).
as §4

[3] = system: animal model of acute respiratory distress syndrome (ARDS); assay: Animal model of ARDS: lung ischemia reperfusion injury plus hemorrhage (P:F ratio, lung injury score); type: in vivo, Sprague-Dawley rats; details: 0.14 μmol/kg i.v. within 10 min after reperfusion; until t=300 min
Experimental: Animals underwent 70 min of […] lung ischemia for 70 min plus hemorrhage to a MAP of 40 mmHg for the last 30 min of ischemia, followed by fluid resuscitation to a MAP of 60 mmHg until t=300 min. Arrow: drug injection. Dashed lines indicate the P:F ratio (mmHg) threshold values for the diagnosis of mild, moderate and severe ARDS. Vehicle: n=5. CXCL12: n=3. CXCL12: n=4. CXCL12-LM: n=3, CXCL12-LD: n=4. CXCL12 K27A/R41A/R47A: n=3. LI+HEM: lung ischemia reperfusion injury plus hemorrhage. Data are mean±SEM. *: p<0.05 vs. vehicle (2-way ANOVA/Dunnett's multiple comparisons test).
FIGS. 12A-12C show lung histology after treatment with CXCL12 and engineered CXCR4 agonists A. Lung specimens were placed in formalin fixative solution and were then embedded in paraffin wax, sliced into 5 μm sections and stained with H&E. Representative images from H&E stained lung sections from animals after vehicle (left) and CXCL12 ([…], right treatment. B/C. Lung injury scores (B. uninjured (left) lung; C. injured (right) lung). Data are median±interquartile ranges. Data were analyzed with the Kruskal Wallis test with Dunn's multiple comparisons test. The level of statistical significance (p) vs. ctrl. (vehicle treatment) indicated.
We tested therapeutic efficacy of wild-type CXCL12, CXXL12-locked dimer (LD), CXCL12-locked monomer (LM) and the triple mutant CXCL12 K27A/R41A/R47A in an animal model of acute respiratory distress syndrome (ARDS) (FIG. 11). All drugs were injected in a dose of 0.14 μmol/kg. Male Sprague-Dawley rats were anesthetized, orotracheally intubated, instrumented with arterial/venous catheters, and mechanically ventilated (PEEP 2 mmHg, FiO2 1.0). After a right lateral thoracotomy, a suture was tied around the hilum of the right lung. Animals underwent 70 min of right lung ischemia plus hemorrhage to a mean arterial blood pressure (MAP) of 40 mmHg for the last 30 min of lung ischemia. At t=70 min, the suture was removed, animals were ventilated with FiO2 1.0, PEEP 5 mmHg and resuscitated with crystalloids to a MAP of 60 mmHg until t=300 min. Vehicle and drugs were injected i.v. within 10 min after reperfusion.
We further evaluated histomorphology of the lungs from animals treated with vehicle, wild-type CXCL12, CXCL12-LD and CXCXL12-LM utilizing a standardized lung injury score. Lung slides stained with hematoxylin and eosin were examined under a light microscope by 4 investigators blinded to the identity of the specimens. The lung injury score was assessed as previously described/. In brief each investigator rendered a score of 0 (no damage) to 4+(maximal damage) based on an injury grading scale composed of six criteria. The slides were assessed for the extent of alveolar congestion, hemorrhage and edema, as well as alveolar and vessel wall PMN infiltration and alveolar wall thickness. […] Lung injury scores of the uninjured and injured lungs from animals treated with vehicle, wild-type CXCL12, CXCL12-LD and CXCXL12-LM are shown in FIGS. […], respectively.

T1 sequence (P25106 whole entry, the tested form may be a part): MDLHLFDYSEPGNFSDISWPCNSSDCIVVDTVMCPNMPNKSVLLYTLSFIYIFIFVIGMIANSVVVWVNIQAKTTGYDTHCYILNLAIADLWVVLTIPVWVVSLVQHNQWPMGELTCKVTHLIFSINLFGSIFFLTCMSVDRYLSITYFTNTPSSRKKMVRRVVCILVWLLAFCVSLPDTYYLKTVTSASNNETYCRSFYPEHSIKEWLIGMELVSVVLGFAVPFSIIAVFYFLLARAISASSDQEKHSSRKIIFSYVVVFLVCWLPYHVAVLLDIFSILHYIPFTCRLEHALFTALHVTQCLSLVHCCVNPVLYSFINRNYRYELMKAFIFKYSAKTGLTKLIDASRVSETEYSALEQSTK
T2 sequence (P61073 whole entry, the tested form may be a part): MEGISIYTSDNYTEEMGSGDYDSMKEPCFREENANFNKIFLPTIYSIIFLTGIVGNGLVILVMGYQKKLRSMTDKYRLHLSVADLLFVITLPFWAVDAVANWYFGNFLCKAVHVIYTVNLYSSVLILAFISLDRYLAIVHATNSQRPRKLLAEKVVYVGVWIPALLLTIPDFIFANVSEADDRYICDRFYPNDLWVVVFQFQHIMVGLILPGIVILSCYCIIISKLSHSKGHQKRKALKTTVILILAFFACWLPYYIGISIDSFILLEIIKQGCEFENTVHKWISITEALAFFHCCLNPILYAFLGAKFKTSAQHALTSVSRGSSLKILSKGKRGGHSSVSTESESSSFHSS

CXCL12 (3-68): truncated CXCL12 (3-68), N-terminal truncated
efficacy for β-arrestin 2 recruitment to ACKR3 (ACKR3): significantly reduced | effect on thrombin-mediated impairment of hPPAEC barrier function (hPPAEC [1]; thrombin 35 nM, after 10 min 0.05-50 nM protein): did not attenuate thrombin-induced impairment of hPPAEC barrier function | efficacy to recruit β-arrestin 2 to CXCR4 (CXCR4; top plateau, % of signal for 1 μM CXCL12α): lacked relevant CXCR4 activity

CXCL12 R47E: CXCL12 mutant which activates CXCR4 with reduced potency
ACKR3 activity (in words) (ACKR3): retains ACKR3 activity comparable to wild type proteins | potency (EC50) to recruit β-arrestin 2 to CXCR4, compared with CXCL12α (CXCR4): significantly lower than the potency of CXCL12α

thrombin
EC50 (hPPAEC [2]; after 55 min): 30 ± 2 nM | EC50 (hPPAEC [2]; after 135 min): 33 ± 2 nM | EC50 (hPPAEC [2]; after 255 min): 36 ± 2 nM | maximal impairment of endothelial barrier function (hPPAEC [2]; at 55 min): 49±3% | maximal impairment of endothelial barrier function (hPPAEC [2]; at 135 min): 59±4% | maximal impairment of endothelial barrier function (hPPAEC [2]; at 255 min): 72±4% | time to reach plateau for the permeability-inducing effects (hPPAEC [2]; thrombin 20 nM): 55 min | time to reach plateau for the permeability-inducing effects (hPPAEC [2]; thrombin 40 nM): 135 min | time to reach plateau for the permeability-inducing effects (hPPAEC [2]; thrombin 50 nM): 255 min | time to reach plateau for the permeability-inducing effects (hPPAEC [2]; thrombin 100 nM): 255 min | EC50 (HULEC-5a; after 55 min): 64 ± 7 nM | EC50 (HULEC-5a; after 135 min): 64 ± 6 nM | EC50 (HULEC-5a; after 255 min): 57 ± 5 nM

B1: CXCL12 K27A/R41A/R47A: CXCL12 mutant with significantly reduced heparan sulfate proteoglycan binding properties (protein)
chain: KPVSLSYRCPCRFFESHVARANVKHLAILNTPNCALQIVAALKNNNAQVCIDPKLKWIQEYLEKALNK
modifications: ends and bridges not checked
EC50 (potency) for β-arrestin 2 recruitment to ACKR3 (ACKR3): retained high potency to activate ACKR3 | potency to attenuate thrombin-induced permeability of hPPAEC (in words) (hPPAEC [1]): same potency as wild type proteins and CXCL121 | potency (EC50) to recruit β-arrestin 2 to CXCR4, compared with CXCL12α (CXCR4): significantly lower than the potency of CXCL12α; also recorded: lowest potency to activate CXCR4 | development of ARDS (P:F ratio) [3]: indistinguishable from vehicle treated animals
